Source: PubChem BioAssay AID330 (DTP/NCI, 2004)
“And” between values parts separate entries of the source, which are not always exact repeats. Identical values can stand only once. Inconclusive results and toxic doses are left out. The calls were made as follows: active = survival T/C of 150% or more; inactive = T/C below 125% in these data.

System: P388 leukemia ip, CD2F1 mice, survival T/C
Test: NCI In Vivo Anticancer Drug Screen. Data for tumor model P388 Leukemia (intraperitoneal) in CD2F1 (CDF1) mice
Conditions: endpoint: median survival time, higher = longer survival
In short: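 Mice carrying the transplanted tumor received test compound or vehicle. Survival was recorded in each group, and the value is the treated-group measurement divided by that of the vehicle-treated control group.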

[1] = dose: 25.0 mg/kg/injection, schedule: Q04DX003 (ip), vehicle: saline with Tween-80
[2] = dose: 50.0 mg/kg/injection, schedule: Q04DX003 (ip), vehicle: saline with Tween-80
[3] = dose: 100.0 mg/kg/injection, schedule: Q04DX003 (ip), vehicle: saline with Tween-80
[4] = dose: 12.5 mg/kg/injection, schedule: Q01DX009 (ip), vehicle: saline with Tween-80
[5] = dose: 25.0 mg/kg/injection, schedule: Q01DX009 (ip), vehicle: saline with Tween-80
[6] = dose: 50.0 mg/kg/injection, schedule: Q01DX009 (ip), vehicle: saline with Tween-80
[7] = dose: 100.0 mg/kg/injection, schedule: Q01DX009 (ip), vehicle: saline with Tween-80
[8] = dose: 200.0 mg/kg/injection, schedule: Q01DX009 (ip), vehicle: saline with Tween-80
[9] = dose: 100.0 mg/kg/injection, schedule: Q01DX001 (ip), vehicle: saline with Tween-80
[10] = dose: 200.0 mg/kg/injection, schedule: Q01DX001 (ip), vehicle: saline with Tween-80
[11] = dose: 400.0 mg/kg/injection, schedule: Q01DX001 (ip), vehicle: saline with Tween-80
[12] = dose: 6.25 mg/kg/injection, schedule: Q01DX009 (ip), vehicle: saline with Tween-80
[13] = dose: 25.0 mg/kg/injection, schedule: Q01DX005 (ip), vehicle: Klucel (hydroxypropylcellulose) (HPC)
[14] = dose: 50.0 mg/kg/injection, schedule: Q04DX003 (ip), vehicle: Klucel (hydroxypropylcellulose) (HPC)
[15] = dose: 6.25 mg/kg/injection, schedule: Q01DX009 (ip), vehicle: saline
[16] = dose: 12.5 mg/kg/injection, schedule: Q01DX009 (ip), vehicle: saline
[17] = dose: 25.0 mg/kg/injection, schedule: Q01DX009 (ip), vehicle: saline

Measured: T/C

O=C(NC(Cc1ccccc1)C(=O)CCl)OCc1ccccc1 (stereo not drawn)
inactive: dose: 25.0 mg/kg/injection, schedule: Q01DX009 (ip), vehicle: other 107 % of control | [1] 115 % of control | dose: 50.0 mg/kg/injection, schedule: Q01DX009 (ip), vehicle: other 105 % of control | [2] 111 % of control | [3] 119 % of control

O=C1OP2(c3ccccc3)(OC(=O)c3ccccc32)c2ccccc21
inactive: [4] 98 % of control and 94 % of control | [5] 99 % of control and 92 % of control | [6] 90 % of control and 95 % of control | [7] 95 % of control | [8] 88 % of control

O=c1[nH]c(=O)n(C2OC(CO)C(O)C2O)cc1Br (stereo not drawn)
inactive: dose: 50.0 mg/kg/injection, schedule: Q01DX005 (ip), vehicle: saline 97 % of control | dose: 100.0 mg/kg/injection, schedule: Q01DX005 (ip), vehicle: saline 101 % of control | dose: 200.0 mg/kg/injection, schedule: Q01DX005 (ip), vehicle: saline 102 % of control

Cc1ccccc1S(=O)(=O)F
inactive: [5] 100 % of control | [1] 100 % of control | [6] 100 % of control | [2] 100 % of control | [7] 109 % of control | [3] 100 % of control

COc1cccc(OC)c1[N+](=O)[O-]
inactive: [6] 87 % of control | [7] 97 % of control | [8] 106 % of control

CC(Cc1ccccc1)N(C)Cc1ccc(-c2ccccc2)o1 (stereo not drawn)
inactive: dose: 60.0 mg/kg/injection, schedule: Q01DX005 (ip), vehicle: saline with Tween-80 100 % of control | dose: 120.0 mg/kg/injection, schedule: Q01DX005 (ip), vehicle: saline with Tween-80 108 % of control | dose: 240.0 mg/kg/injection, schedule: Q01DX005 (ip), vehicle: saline with Tween-80 109 % of control

CCO/C=N\c1c(NC(N)=O)cnn1Cc1ccccc1
inactive: [9] 96 % of control | [10] 93 % of control | [11] 98 % of control

O=C(O)CN(CC(=O)O)Cc1cc2c(c(O)c1O)C(=O)c1ccccc1C2=O
inactive: [12] 97 % of control | [4] 101 % of control | [5] 93 % of control | [7] 100 % of control | [8] 100 % of control

CC(c1ccccc1)/[N+]([O-])=N\O (stereo not drawn)
inactive: dose: 3.0 mg/kg/injection, schedule: Q01DX005 (ip), vehicle: Klucel + Tween-80 100 % of control | dose: 6.0 mg/kg/injection, schedule: Q01DX005 (ip), vehicle: Klucel + Tween-80 90 % of control | dose: 12.0 mg/kg/injection, schedule: Q01DX005 (ip), vehicle: Klucel + Tween-80 97 % of control | dose: 24.0 mg/kg/injection, schedule: Q01DX005 (ip), vehicle: Klucel + Tween-80 98 % of control

O=C(O[C@H]1CCN2C[C@H]3C[C@H](CN4C(=O)CCC[C@H]34)[C@@H]2C1)c1ccc(O)cc1
inactive: dose: 6.25 mg/kg/injection, schedule: Q01DX005 (ip), vehicle: Klucel (hydroxypropylcellulose) (HPC) 103 % of control | dose: 12.5 mg/kg/injection, schedule: Q01DX005 (ip), vehicle: Klucel (hydroxypropylcellulose) (HPC) 106 % of control | [13] 104 % of control

NNc1ncnc2c1ccn2C1OC(CO)C(O)C1O (stereo not drawn)
inactive: [12] 108 % of control | [4] 113 % of control | dose: 37.5 mg/kg/injection, schedule: Q01DX009 (ip), vehicle: saline with Tween-80 118 % of control

CC12CCC3C(CCC4CC5OC(=O)CC5CC43C)C1CCC2=O (stereo not drawn)
inactive: [14] 102 % of control | dose: 100.0 mg/kg/injection, schedule: Q04DX003 (ip), vehicle: Klucel (hydroxypropylcellulose) (HPC) 107 % of control | dose: 200.0 mg/kg/injection, schedule: Q04DX003 (ip), vehicle: Klucel (hydroxypropylcellulose) (HPC) 106 % of control | dose: 400.0 mg/kg/injection, schedule: Q04DX003 (ip), vehicle: Klucel (hydroxypropylcellulose) (HPC) 101 % of control

Cn1[nH]c2[nH]c(=S)sc(=S)c2c1=O
inactive: [13] 109 % of control | dose: 50.0 mg/kg/injection, schedule: Q01DX005 (ip), vehicle: Klucel (hydroxypropylcellulose) (HPC) 109 % of control | dose: 100.0 mg/kg/injection, schedule: Q01DX005 (ip), vehicle: Klucel (hydroxypropylcellulose) (HPC) 98 % of control | dose: 200.0 mg/kg/injection, schedule: Q01DX005 (ip), vehicle: Klucel (hydroxypropylcellulose) (HPC) 104 % of control

[NH-]NC(=S)[S-].[NH-]NC(=S)[S-].[Pt+4]
inactive: dose: 12.5 mg/kg/injection, schedule: Q04DX003 (ip), vehicle: Klucel (hydroxypropylcellulose) (HPC) 103 % of control | dose: 25.0 mg/kg/injection, schedule: Q04DX003 (ip), vehicle: Klucel (hydroxypropylcellulose) (HPC) 100 % of control | [14] 109 % of control

Cc1ncc(CO)c(C2NOCc3nscc32)c1O (stereo not drawn)
inactive: dose: 3.5 mg/kg/injection, schedule: Q04DX003 (ip), vehicle: saline 100 % of control | dose: 7.0 mg/kg/injection, schedule: Q04DX003 (ip), vehicle: saline 95 % of control | dose: 14.0 mg/kg/injection, schedule: Q04DX003 (ip), vehicle: saline 100 % of control

O=C1OCC2OC(=O)c3cc(O)c(O)c(O)c3-c3c(O)c(O)c(O)c4c3C(=O)OC(C2OC(=O)c2cc(O)c(O)c(O)c2-c2c1cc(O)c(O)c2O)C1OC(=O)c2c-4c(O)c(O)c(O)c2C1O (stereo not drawn)
inactive: dose: 1.56 mg/kg/injection, schedule: Q01DX009 (ip), vehicle: saline 101 % of control | dose: 3.12 mg/kg/injection, schedule: Q01DX009 (ip), vehicle: saline 100 % of control | [15] 99 % of control and 88 % of control and 100 % of control | [16] 100 % of control

CC(C)Cc1cc(C(F)(F)F)nc(NNc2nc(CC(C)C)cc(C(F)(F)F)n2)n1
inactive: dose: 50.0 mg/kg/injection, schedule: Q01DX009 (ip), vehicle: Klucel (hydroxypropylcellulose) (HPC) 90 % of control | dose: 100.0 mg/kg/injection, schedule: Q01DX009 (ip), vehicle: Klucel (hydroxypropylcellulose) (HPC) 87 % of control

CN(C)CCOCN1COCC1(C)C
inactive: [17] 123 % of control

O=C(NC(=S)c1ccc(Br)cc1)Nc1ccccc1
inactive: dose: 2.5 mg/kg/injection, schedule: Q01DX009 (ip), vehicle: saline with Tween-80 90 % of control | dose: 5.0 mg/kg/injection, schedule: Q01DX009 (ip), vehicle: saline with Tween-80 103 % of control | dose: 10.0 mg/kg/injection, schedule: Q01DX009 (ip), vehicle: saline with Tween-80 88 % of control

N#C/C(=C\c1c2ccccc2c(Cl)c2ccccc12)C(N)=S
inactive: [15] 90 % of control | [16] 88 % of control | [17] 90 % of control | dose: 50.0 mg/kg/injection, schedule: Q01DX009 (ip), vehicle: saline 92 % of control | dose: 100.0 mg/kg/injection, schedule: Q01DX009 (ip), vehicle: saline 97 % of control | dose: 200.0 mg/kg/injection, schedule: Q01DX009 (ip), vehicle: saline 103 % of control

c1ccc(C2=NC3CCCCC3N=C2c2ccccc2)cc1 (stereo not drawn)
inactive: [7] 100 % of control | [8] 100 % of control | dose: 400.0 mg/kg/injection, schedule: Q01DX009 (ip), vehicle: saline with Tween-80 100 % of control

Nc1cc(=O)[nH]c(=S)n1-c1ccc(Br)cn1
inactive: [9] 90 % of control | [10] 100 % of control | [11] 90 % of control

COc1ccc(C2=NC(c3ccccc3)N3C(c4ccccc4)NC(c4ccccc4)C2C3c2ccccc2)cc1 (stereo not drawn)
inactive: [4] 100 % of control | [5] 90 % of control | [6] 90 % of control and 93 % of control | [8] 91 % of control
